{
  "source": "paper PMC2776708",
  "about": "(Bioorganic & medicinal chemistry letters, 2009)",
  "data": [
    {"test_system": "not listed separately", "experiment": "Stability", "format": "physicochemical", "conditions": "qualitative statement", "values": [
      {"smiles": "COc1ccc(S(=O)(=O)n2nc(OC(=O)c3c(F)cccc3F)cc2N)cc1", "note": "[Compound 7a]", "stability in pH 8 buffer (in words)": "significantly more stable"},
      {"smiles": "COc1ccc(Cn2nc(C)cc2OC(=O)c2ccccc2)cc1", "note": "[Compound 10a]", "stability in pH 8 buffer (in words)": "significantly more stable"},
      {"smiles": "COc1ccc(Cn2nc(C)cc2/C=C/c2c(F)cccc2F)cc1", "note": "[Compound 14]", "stability in pH 8 buffer (in words)": "highly stable"},
      {"smiles": "Cc1cc(NC(=O)c2ccccc2)n(-c2ccccc2)n1", "note": "[Compound 15]", "stability in pH 8 buffer (in words)": "highly stable"}
    ]},
    {"target": "T1, WNV NS2B-NS3 proteinase (West Nile virus, UniProt Q9Q6P4)", "T1 sequence (Q9Q6P4 1506-1683)": "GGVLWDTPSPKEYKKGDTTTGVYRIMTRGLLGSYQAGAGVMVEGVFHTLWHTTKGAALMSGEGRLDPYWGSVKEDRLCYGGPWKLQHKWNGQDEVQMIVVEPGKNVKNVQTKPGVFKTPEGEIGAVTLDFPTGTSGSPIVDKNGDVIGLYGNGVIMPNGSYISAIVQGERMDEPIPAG", "T1 sequence (Q9Q6P4 1375-1505)": "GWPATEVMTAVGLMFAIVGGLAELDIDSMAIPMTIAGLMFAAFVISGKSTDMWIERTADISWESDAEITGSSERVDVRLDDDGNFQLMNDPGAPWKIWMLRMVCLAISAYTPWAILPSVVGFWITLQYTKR", "experiment": "not given", "conditions": "products of ester hydrolysis; cited from earlier work", "units": {"IC50": "µM"}, "values": [
      {"smiles": "COc1ccc(Cn2nc(C)cc2O)cc1", "note": "[Compound 8, 1-(4-methoxybenzyl)-3-methyl-1H-pyrazol-5-ol]", "IC50": "> 100"}
    ]},
    {"test_system": "not listed separately", "experiment": "Stability in the in vitro assay buffer without enzyme", "format": "physicochemical", "conditions": "absence of enzyme, Figure 2", "values": [
      {"smiles": "COc1ccc(S(=O)(=O)n2nc(OC(=O)c3ccc(F)cc3F)cc2N)cc1", "note": "[Compound 7e]", "stability in assay buffer (in words)": "relatively stable"}
    ]},
    {"target": "T1, WNV NS2B-NS3 proteinase", "experiment": "WNV NS2B-NS3 proteinase activity assay with Pyr-RTKR-AMC fluorogenic substrate", "format": "biochemical", "conditions": "not given", "units": {"IC50": "µM"}, "values": [
      {"smiles": "COc1ccc(S(=O)(=O)n2nc(OC(=O)c3ccccc3)cc2N)cc1", "note": "[Compound 1]", "IC50": 0.105},
      {"smiles": "COc1ccc(S(=O)(=O)n2nc(OC(=O)c3cccs3)cc2N)cc1", "note": "[Compound 2]", "IC50": 0.11},
      {"smiles": "COc1ccc(S(=O)(=O)n2nc(OC(=O)c3c(Cl)cccc3Cl)cc2N)cc1", "note": "[Compound 7n]", "IC50": "> 100"},
      {"smiles": "COc1ccc(S(=O)(=O)n2nc(OC(=O)c3ccccc3[N+](=O)[O-])cc2N)cc1", "note": "[Compound 7p]", "IC50": "> 100"},
      {"smiles": "COc1ccc(Cn2nc(C)cc2CC(O)c2ccccc2)cc1", "note": "(stereo not shown) [Compound 12a]", "IC50": "> 100"},
      {"smiles": "COc1ccc(Cn2nc(C)cc2CC(O)c2c(F)cccc2F)cc1", "note": "(stereo not shown) [Compound 12b]", "IC50": "> 100"},
      {"smiles": "COc1ccc(Cn2nc(C)cc2CC(=O)c2ccccc2)cc1", "note": "[Compound 13a]", "IC50": "> 100"}
    ]},
    {"target": "T1, WNV NS2B-NS3 proteinase", "experiment": "WNV NS2B-NS3 proteinase activity assay with Pyr-RTKR-AMC fluorogenic substrate", "format": "biochemical", "conditions": "qualitative statement", "values": [
      {"smiles": "COc1ccc(S(=O)(=O)n2nc(OC(=O)c3ccccc3C)cc2N)cc1", "note": "[Compound 7f]", "inhibitory activity (in words)": "retained its micromolar inhibitory activity"},
      {"smiles": "COc1ccc(S(=O)(=O)n2nc(OC(=O)c3c(Cl)cccc3Cl)cc2N)cc1", "note": "[Compound 7n]", "inhibitory activity (in words)": "complete loss of activity"},
      {"smiles": "COc1ccc(S(=O)(=O)n2nc(OC(=O)c3ccccc3OC)cc2N)cc1", "note": "[Compound 7o]", "inhibitory activity (in words)": "inactive"},
      {"smiles": "COc1ccc(S(=O)(=O)n2nc(OC(=O)c3ccccc3[N+](=O)[O-])cc2N)cc1", "note": "[Compound 7p]", "inhibitory activity (in words)": "inactive"}
    ]},
    {"target": "T1, WNV NS2B-NS3 proteinase", "experiment": "Stability in the in vitro assay buffer with WNV NS2B-NS3 proteinase", "conditions": "Figure 2", "values": [
      {"smiles": "COc1ccc(S(=O)(=O)n2nc(OC(=O)c3ccc(F)cc3F)cc2N)cc1", "note": "[Compound 7e]", "stability in presence of enzyme (in words)": "degraded rapidly"},
      {"smiles": "COc1ccc(Cn2nc(C)cc2OC(=O)c2ccccc2)cc1", "note": "[Compound 10a]", "stability in presence of enzyme (in words)": "approximately the same in the presence or absence of the enzyme"}
    ]}
  ]
}
